We go through 27 compounds from US20130303507A1 (Novartis AG, priority 2011, published 2013).

The target in this experiment is Cdk9/cyclinT1 (Homo sapiens, UniProt P50750). Put plainly: Cdk9/cyclinT1 IMAP protocol (fluorescence polarization). Particulars: IC-50, CDK9; lower limit of assay 0.0005 micromolar. (Polarisation of emitted light reports the rotation of a fluorescent probe.)
Chain of Cdk9/cyclinT1 (P50750 whole entry): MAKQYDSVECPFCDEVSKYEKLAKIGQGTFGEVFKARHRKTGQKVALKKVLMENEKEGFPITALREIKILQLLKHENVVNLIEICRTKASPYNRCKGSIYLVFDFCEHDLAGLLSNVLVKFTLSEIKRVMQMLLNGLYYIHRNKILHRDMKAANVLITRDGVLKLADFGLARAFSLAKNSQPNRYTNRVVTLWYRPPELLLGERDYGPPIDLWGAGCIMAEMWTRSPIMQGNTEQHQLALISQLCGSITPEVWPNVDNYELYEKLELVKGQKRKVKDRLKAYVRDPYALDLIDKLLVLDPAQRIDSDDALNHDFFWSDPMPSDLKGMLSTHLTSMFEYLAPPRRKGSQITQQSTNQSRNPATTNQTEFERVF
Chain of Cdk9/cyclinT1 (O60563 whole entry partner): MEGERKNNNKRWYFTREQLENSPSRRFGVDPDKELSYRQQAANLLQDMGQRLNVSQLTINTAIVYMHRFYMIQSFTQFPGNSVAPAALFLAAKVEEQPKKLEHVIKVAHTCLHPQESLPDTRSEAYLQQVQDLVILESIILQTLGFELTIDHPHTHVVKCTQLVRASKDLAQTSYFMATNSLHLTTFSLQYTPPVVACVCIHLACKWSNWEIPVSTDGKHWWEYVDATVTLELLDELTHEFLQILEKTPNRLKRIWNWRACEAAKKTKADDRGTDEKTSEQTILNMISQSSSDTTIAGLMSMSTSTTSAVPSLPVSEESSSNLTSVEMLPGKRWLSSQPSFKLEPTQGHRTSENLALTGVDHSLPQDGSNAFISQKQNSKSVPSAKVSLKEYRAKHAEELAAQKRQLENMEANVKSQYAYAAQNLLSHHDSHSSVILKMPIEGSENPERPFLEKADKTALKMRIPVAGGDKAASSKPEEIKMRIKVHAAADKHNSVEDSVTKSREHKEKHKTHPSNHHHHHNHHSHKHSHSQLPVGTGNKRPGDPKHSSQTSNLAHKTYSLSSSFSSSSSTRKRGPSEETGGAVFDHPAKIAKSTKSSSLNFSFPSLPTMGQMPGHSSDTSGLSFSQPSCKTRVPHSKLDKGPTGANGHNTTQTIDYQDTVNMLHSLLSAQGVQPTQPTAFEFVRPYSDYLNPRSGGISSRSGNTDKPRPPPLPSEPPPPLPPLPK
With `N#CC1(CNc2cccc(-c3cc(N[C@H]4CC[C@H](NCC5CCCO5)CC4)ncc3Cl)n2)CCOCC1` (stereo partly drawn) [Compound 468, 4-(((5′-chloro-2′-((trans-4-(((tetrahydrofuran-2-yl)methyl)amino)cyclohexyl)amino)-[2,4′-bipyridin]-6-yl)amino)methyl)tetrahydro-2H-pyran-4-carbonitrile], the IC50 (usually the concentration that gives 50% inhibition) is under 500 pM. The same measure for `N#CC1(CNc2cccc(-c3cc(N[C@H]4CC[C@H](N[C@H]5CCOC5)CC4)ncc3Cl)n2)CCOCC1` [Compound 469, 4-(((5′-chloro-2′-((trans-4-(((S)-tetrahydrofuran-3-yl)amino)cyclohexyl)amino)-[2,4′-bipyridin]-6-yl)amino)methyl)tetrahydro-2H-pyran-4-carbonitrile]: under 500 pM; for `N#CC1(CNc2cccc(-c3cc(N[C@H]4CC[C@H](N[C@@H]5CCOC5)CC4)ncc3Cl)n2)CCOCC1` [Compound 470, 4-(((5′-chloro-2′-((trans-4-(((R)-tetrahydrofuran-3-yl)amino)cyclohexyl)amino)-[2,4′-bipyridin]-6-yl)amino)methyl)tetrahydro-2H-pyran-4-carbonitrile]: under 500 pM; for `COC[C@@H](C)N[C@H]1CC[C@H](Nc2cc(-c3cccc(NCC4(C#N)CCOCC4)n3)c(F)cn2)CC1` [Compound 471, 4-(((5′-fluoro-2′-((trans-4-(((R)-1-methoxypropan-2-yl)amino)cyclohexyl)amino)-[2,4′-bipyridin]-6-yl)amino)methyl)tetrahydro-2H-pyran-4-carbonitrile]: under 500 pM. The result for `N#CC1(CNc2cccc(-c3cc(N[C@H]4CC[C@H](NC[C@@H]5CCCO5)CC4)ncc3Cl)n2)CCOCC1` [Compound 472, 4-(((5′-chloro-2′-((trans-4-((((S)-tetrahydrofuran-2-yl)methyl)amino)cyclohexyl)amino)-[2,4′-bipyridin]-6-yl)amino)methyl)tetrahydro-2H-pyran-4-carbonitrile] reads under 500 pM; that for `N#CC1(CNc2cccc(-c3cc(N[C@H]4CC[C@H](NC[C@H]5CCCO5)CC4)ncc3Cl)n2)CCOCC1` [Compound 473, 4-(((5′-chloro-2′-((trans-4-((((R)-tetrahydrofuran-2-yl)methyl)amino)cyclohexyl)amino)-[2,4′-bipyridin]-6-yl)amino)methyl)tetrahydro-2H-pyran-4-carbonitrile], under 500 pM; that for `COCCN[C@H]1CC[C@H](Nc2cc(-c3cccc(NCC4(C#N)CCOCC4)n3)c(F)cn2)CC1` [Compound 474, 4-(((5′-fluoro-2′-((trans-4-((2-methoxyethyl)amino)cyclohexyl)amino)-[2,4′-bipyridin]-6-yl)amino)methyl)tetrahydro-2H-pyran-4-carbonitrile], under 500 pM.

`CO[C@H]1CCN([C@H]2CC[C@H](Nc3cc(-c4cccc(NCC5(C#N)CCOCC5)n4)c(Cl)cn3)CC2)C1` [Compound 475, 4-(((5′-chloro-2′-((trans-4-((S)-3-methoxypyrrolidin-1-yl)cyclohexyl)amino)-[2,4′-bipyridin]-6-yl)amino)methyl)tetrahydro-2H-pyran-4-carbonitrile] returned an IC50 of 600 pM.

The compound `CO[C@H]1CCN([C@H]2CC[C@@H](Nc3cc(-c4cccc(NCC5(C#N)CCOCC5)n4)c(Cl)cn3)CC2)C1` [Compound 476, 4-(((5′-chloro-2′-((cis-4-((S)-3-methoxypyrrolidin-1-yl)cyclohexyl)amino)-[2,4′-bipyridin]-6-yl)amino)methyl)tetrahydro-2H-pyran-4-carbonitrile] yielded an IC50 of 5400 pM. For `CO[C@@H]1CCN([C@H]2CC[C@H](Nc3cc(-c4cccc(NCC5(C#N)CCOCC5)n4)c(Cl)cn3)CC2)C1` [Compound 477, 4-(((5′-chloro-2′-((trans-4-((R)-3-methoxypyrrolidin-1-yl)cyclohexyl)amino)-[2,4′-bipyridin]-6-yl)amino)methyl)tetrahydro-2H-pyran-4-carbonitrile], the half-inhibitory concentration (IC50) was 800 pM.

`CO[C@@H]1CCN([C@H]2CC[C@@H](Nc3cc(-c4cccc(NCC5(C#N)CCOCC5)n4)c(Cl)cn3)CC2)C1` [Compound 478, 4-(((5′-chloro-2′-((cis-4-((R)-3-methoxypyrrolidin-1-yl)cyclohexyl)amino)-[2,4′-bipyridin]-6-yl)amino)methyl)tetrahydro-2H-pyran-4-carbonitrile]: 19000 pM corresponded to half-maximal inhibition (IC50). Compared with the last compound, the IC50 is about 24-fold higher. The same measure for `N#CC1(CNc2cccc(-c3cc(N[C@H]4CC[C@H](N)CC4)ncc3F)n2)CCOCC1` [Compound 479, 4-(((2′-((trans-4-aminocyclohexyl)amino)-5′-fluoro-[2,4′-bipyridin]-6-yl)amino)methyl)tetrahydro-2H-pyran-4-carbonitrile]: under 500 pM; for `COC[C@@H](C)N[C@H]1CC[C@H](Nc2cc(-c3cccc(NCC4(C#N)CC4)n3)c(F)cn2)CC1` [Compound 480, 1-(((5′-fluoro-2′-((trans-4-(((R)-1-methoxypropan-2-yl)amino)cyclohexyl)amino)-[2,4′-bipyridin]-6-yl)amino)methyl)cyclopropane-carbonitrile]: under 500 pM; for `COCCN[C@H]1CC[C@H](Nc2cc(-c3ccc(F)c(NCC4(C)CCOCC4)n3)c(Cl)cn2)CC1` [Compound 481, 5′-chloro-5-fluoro-N2′-(trans-4-((2-methoxyethyl)amino)cyclohexyl)-N6-((4-methyltetrahydro-2H-pyran-4-yl)methyl)-[2,4′-bipyridine]-2′,6-diamine]: under 500 pM. The same measure for `N#CC1(CNc2cccc(-c3cc(N[C@H]4CC[C@H](NCC5CCCO5)CC4)ncc3F)n2)CCOCC1` (stereo partly drawn) [Compound 482, 4-(((5′-fluoro-2′-((trans-4-(((tetrahydrofuran-2-yl)methyl)amino)cyclohexyl)amino)-[2,4′-bipyridin]-6-yl)amino)methyl)tetrahydro-2H-pyran-4-carbonitrile]: under 500 pM. The same measure for `N#CC1(CNc2cccc(-c3cc(N[C@H]4CC[C@H](NC[C@@H]5CCCO5)CC4)ncc3F)n2)CCOCC1` [Compound 483, 4-(((5′-fluoro-2′-((trans-4-((((S)-tetrahydrofuran-2-yl)methyl)amino)cyclohexyl)amino)-[2,4′-bipyridin]-6-yl)amino)methyl)tetrahydro-2H-pyran-4-carbonitrile]: under 500 pM; for `N#CC1(CNc2cccc(-c3cc(N[C@H]4CC[C@H](NC[C@H]5CCCO5)CC4)ncc3F)n2)CCOCC1` [Compound 484, 4-(((5′-fluoro-2′-((trans-4-((((R)-tetrahydrofuran-2-yl)methyl)amino)cyclohexyl)amino)-[2,4′-bipyridin]-6-yl)amino)methyl)tetrahydro-2H-pyran-4-carbonitrile]: under 500 pM; for `NC(=O)C1(CNc2cccc(-c3cc(N[C@H]4CC[C@H](N)CC4)ncc3F)n2)CCOCC1` [Compound 485, 4-(((2′-((trans-4-aminocyclohexyl)amino)-5′-fluoro-[2,4′-bipyridin]-6-yl)amino)methyl)tetrahydro-2H-pyran-4-carboxamide]: 1800 pM. Regarding `N#CC1(CNc2cccc(-c3cc(N[C@H]4CC[C@H](N)CC4)ncc3F)n2)CC1` [Compound 486, 1-(((2′-((trans-4-aminocyclohexyl)amino)-5′-fluoro-[2,4′-bipyridin]-6-yl)amino)methyl)cyclopropane-carbonitrile], the IC50 is under 500 pM. In turn, `NC(=O)C1(CNc2cccc(-c3cc(N[C@H]4CC[C@H](N)CC4)ncc3F)n2)CC1` [Compound 487, 1-(((2′-((trans-4-aminocyclohexyl)amino)-5′-fluoro-[2,4′-bipyridin]-6-yl)amino)methyl)cyclopropane-carboxamide] registered an IC50 of under 500 pM. Compound `COCCN[C@H]1CC[C@H](Nc2cc(-c3cccc(NCC4(C#N)CC4)n3)c(F)cn2)CC1` [Compound 488, 1-(((5′-fluoro-2′-((trans-4-((2-methoxyethyl)amino)cyclohexyl)amino)-[2,4′-bipyridin]-6-yl)amino)methyl)cyclopropane-carbonitrile] registered a half-inhibitory concentration (IC50) of under 500 pM.

Take `COC[C@H](C)N[C@H]1CC[C@H](Nc2cc(-c3cccc(NCC4(C#N)CCOCC4)n3)c(F)cn2)CC1` [Compound 489, 4-(((5′-fluoro-2′-((trans-4-(((S)-1-methoxypropan-2-yl)amino)cyclohexyl)amino)-[2,4′-bipyridin]-6-yl)amino)methyl)tetrahydro-2H-pyran-4-carbonitrile]: the IC50 was at most 500 pM. As for `N#CC1(CNc2cccc(-c3cc(N[C@H]4CC[C@H](NC[C@H](O)C(F)(F)F)CC4)ncc3Cl)n2)CCOCC1` [Compound 490, 4-(((5′-chloro-2′-((trans-4-(((S)-3,3,3-trifluoro-2-hydroxypropyl)amino)cyclohexyl)amino)-[2,4′-bipyridin]-6-yl)amino)methyl)tetrahydro-2H-pyran-4-carbonitrile], the IC50 is under 500 pM. The result for `N#CC1(CNc2cccc(-c3cc(N[C@H]4CC[C@H](NC[C@@H](O)C(F)(F)F)CC4)ncc3Cl)n2)CCOCC1` [Compound 491, 4-(((5′-chloro-2′-((trans-4-(((R)-3,3,3-trifluoro-2-hydroxypropyl)amino)cyclohexyl)amino)-[2,4′-bipyridin]-6-yl)amino)methyl)tetrahydro-2H-pyran-4-carbonitrile] reads under 500 pM.

The compound `N#CC1(CNc2cccc(-c3cc(N[C@H]4CC[C@H](CN)CC4)ncc3Cl)n2)CCOCC1` [Compound 493, 4-(((2′-((trans-4-(aminomethyl)cyclohexyl)amino)-5′-chloro-[2,4′-bipyridin]-6-yl)amino)methyl)tetrahydro-2H-pyran-4-carbonitrile] returned an IC50 of under 500 pM.

Take `CS(=O)(=O)NC[C@H]1CC[C@H](Nc2cc(-c3cccc(NCC4(C#N)CCOCC4)n3)c(Cl)cn2)CC1` [Compound 494, N-((trans-4-((5′-chloro-6-(((4-cyanotetrahydro-2H-pyran-4-yl)methyl)amino)-[2,4′-bipyridin]-2′-yl)amino)cyclohexyl)methyl) methanesulfonamide]: the IC50 is under 500 pM.

Consider `CC(C)S(=O)(=O)NC[C@H]1CC[C@H](Nc2cc(-c3cccc(NCC4(C#N)CCOCC4)n3)c(Cl)cn2)CC1` [Compound 495, N-((trans-4-((5′-chloro-6-(((4-cyanotetrahydro-2H-pyran-4-yl)methyl)amino)-[2,4′-bipyridin]-2′-yl)amino)cyclohexyl)methyl) propane-2-sulfonamide], for which the 50% inhibitory concentration (IC50) was under 500 pM.
